Laboratory results as given in paper PMC7715017, “Conjugation of Synthetic Polyproline Moietes to Lipid II Binding Fragments of Nisin Yields Active and Stable Antimicrobials” (Frontiers in Microbiology, 2020).
≈ marks a conversion by molar mass, not a printed value. Read-outs that look alike come from different tables or passages of the source. Non-standard residues stand in square brackets, D forms with d. Residues, ends and D or L forms follow the SMILES beside them. *: point of attachment. Oic = O=C(O)[C@@H]1C[C@@H]2CCCC[C@@H]2N1; Pent4ynoyl = C#CCCC(=O)*

Columns and labels:
[1] = test system: L. lactis NZ9000 (pEmpty); conditions: broth microdilution (Wiegand et al. 2008); samples in 0.05% acetic acid; strain with empty plasmid
Description: (§1) All samples were resuspended in 0.05% aqueous acetic acid solution and the peptide amount was quantified by HPLC according to Schmitt et al. ([Schmitt et al., 2019]). The indicator strains MW2-MRSA, Enterococcus faecium, Listeria monocytogenes, and Lactococcus lactis were first streaked on GM17 plate and cultured overnight. The peptide samples were diluted with 0.05% acetic acid to a concentration of 40–320 μM (depending on the estimated activity of the peptide and the strain tested). The MIC value test was performed according to [Wiegand et al. (2008)].
(§2) M. flavus was used as the indicator strain for the agar well diffusion assay, and 0.15 nmol of each sample was added to each well (Figure 3). […] Antimicrobial activity of all compounds was tested by growth inhibition assays against two clinically relevant Gram-positive pathogens, i.e., methicillin resistant S. aureus and vancomycin resistant E. faecium, as well as L. monocytogenes, and L. lactis. […] For this experiment, an activity test was performed against the NSR producing strain L. lactis NZ9000 (pNSR).

[2] = test system: MW2-MRSA (Staphylococcus aureus MW2, methicillin resistant)
Description: as §1, §2

[3] = test system: Listeria monocytogenes LMG 10470
Description: as §1, §2

[4] = test system: Enterococcus faecium LMG 16003 (vancomycin resistant, VRE)
Description: as §1, §2

[5] = MW2- ( MW2, methicillin resistant)
[6] = broth microdilution (Wiegand et al. 2008), samples in 0.05% acetic acid, quantified by HPLC

| Compound | MIC value, L. lactis NZ9000 (pEmpty) [1] [μM] | MIC value, MW2-MRSA [2, 5] [µM] | MIC value, L. monocytogenes ([3]; LMG 10470) [µM] | MIC value, E. faecium ([4]; LMG 16003) [µM] | MIC value, MW2-MRSA [2, 6] [µM] | MIC value, L. monocytogenes [3, 6] [µM] | MIC value, E. faecium [4, 6] [µM] |
| --- | --- | --- | --- | --- | --- | --- | --- |
| C=C1NC(=O)[C@H]([C@@H](C)CC)NC(=O)[C@H](NC(=O)/C(=C/C)NC(=O)[C@@H](N)[C@@H](C)CC)CSC[C@@H](C(=O)N[C@H]2C(=O)N3CCC[C@H]3C(=O)NCC(=O)N[C@H](C(=O)N[C@@H](CCCCN)C(=O)NCCCn3cc(CCC(=O)N4[C@H](C(=O)N5[C@H](C(=O)N6[C@H](C(=O)N7[C@H](C(=O)N8[C@H](C(=O)N9[C@H](C(=O)O)C[C@@H]%10CCCC[C@@H]%109)C[C@@H]9CCCC[C@@H]98)C[C@@H]8CCCC[C@@H]87)C[C@@H]7CCCC[C@@H]76)C[C@@H]6CCCC[C@@H]65)C[C@@H]5CCCC[C@@H]54)nn3)CS[C@H]2C)NC(=O)[C@H](CC(C)C)NC1=O [Nisin AB + O6] | 20 |  |  |  |  |  |  |
| C#CCCC(=O)N1[C@H](C(=O)N2[C@H](C(=O)N3[C@H](C(=O)N[C@@H](CCCCN)C(=O)N[C@@H](CCCCN)C(=O)N[C@@H](CCCCN)C(=O)O)C[C@@H]4CCCC[C@@H]43)C[C@@H]3CCCC[C@@H]32)C[C@@H]2CCCC[C@@H]21 [O3K3] (Pent4ynoyl-[Oic][Oic][Oic]KKK-OH) | >160 | >160 | >160 | >160 |  |  |  |
| C=C1NC(=O)[C@H]([C@@H](C)CC)NC(=O)[C@H](NC(=O)/C(=C/C)NC(=O)[C@@H](N)[C@@H](C)CC)CSC[C@@H](C(=O)N[C@H]2C(=O)N3CCC[C@H]3C(=O)NCC(=O)N[C@H](C(=O)N[C@@H](CCCCN)C(=O)N[C@H]3C(=O)NCC(=O)N[C@@H](C)C(=O)N[C@@H](CC(C)C)C(=O)N[C@@H](CCSC)C(=O)NCC(=O)N[C@H](C(=O)N[C@@H](CC(N)=O)C(=O)O)CS[C@H]3C)CS[C@H]2C)NC(=O)[C@H](CC(C)C)NC1=O [Nisin ABC, reference compound] | 5.0 | 40 (≈ 75.2 µg/mL) | 40 (≈ 75.2 µg/mL) | 40 (≈ 75.2 µg/mL) |  |  |  |
| C=C1NC(=O)[C@H]([C@@H](C)CC)NC(=O)[C@H](NC(=O)/C(=C/C)NC(=O)[C@@H](N)[C@@H](C)CC)CSC[C@@H](C(=O)N[C@H]2C(=O)N3CCC[C@H]3C(=O)NCC(=O)N[C@H](C(=O)N[C@@H](CCCCN)C(=O)NCCCn3cc(CCC(=O)N4[C@H](C(=O)N5[C@H](C(=O)N6[C@H](C(=O)O)C[C@@H]7CCCC[C@@H]76)C[C@@H]6CCCC[C@@H]65)C[C@@H]5CCCC[C@@H]54)nn3)CS[C@H]2C)NC(=O)[C@H](CC(C)C)NC1=O [Nisin AB + O3] | >40 |  |  |  |  |  |  |
| C#CCCC(=O)N1[C@H](C(=O)N2[C@H](C(=O)N3[C@H](C(=O)O)C[C@@H]4CCCC[C@@H]43)C[C@@H]3CCCC[C@@H]32)C[C@@H]2CCCC[C@@H]21 [O3] |  | >320 | >320 | >320 |  |  |  |
| C=C1NC(=O)[C@H]([C@@H](C)CC)NC(=O)[C@H](NC(=O)/C(=C/C)NC(=O)[C@@H](N)[C@@H](C)CC)CSC[C@@H](C(=O)N[C@H]2C(=O)N3CCC[C@H]3C(=O)NCC(=O)N[C@H](C(=O)N[C@@H](CCCCN)C(=O)N[C@H]3C(=O)NCC(=O)N[C@@H](C)C(=O)N[C@@H](CC(C)C)C(=O)N[C@@H](CCSC)C(=O)NCC(=O)N[C@H](C(=O)N[C@@H](CC(N)=O)C(=O)NCCCn4cc(CCC(=O)N5[C@H](C(=O)N6[C@H](C(=O)N7[C@H](C(=O)N8[C@H](C(=O)N9[C@H](C(=O)N%10[C@H](C(=O)N%11[C@H](C(=O)N%12[C@H](C(=O)N%13[C@H](C(=O)O)C[C@@H]%14CCCC[C@@H]%14%13)C[C@@H]%13CCCC[C@@H]%13%12)C[C@@H]%12CCCC[C@@H]%12%11)C[C@@H]%11CCCC[C@@H]%11%10)C[C@@H]%10CCCC[C@@H]%109)C[C@@H]9CCCC[C@@H]98)C[C@@H]8CCCC[C@@H]87)C[C@@H]7CCCC[C@@H]76)C[C@@H]6CCCC[C@@H]65)nn4)CS[C@H]3C)CS[C@H]2C)NC(=O)[C@H](CC(C)C)NC1=O [Nisin ABC + O9] | 5.0 | >80 | 40 | 10 |  |  |  |
| C#CCCC(=O)N1[C@H](C(=O)N2[C@H](C(=O)N3[C@H](C(=O)N4[C@H](C(=O)N5[C@H](C(=O)N6[C@H](C(=O)N[C@@H](CCCCN)C(=O)N[C@@H](CCCCN)C(=O)N[C@@H](CCCCN)C(=O)O)C[C@@H]7CCCC[C@@H]76)C[C@@H]6CCCC[C@@H]65)C[C@@H]5CCCC[C@@H]54)C[C@@H]4CCCC[C@@H]43)C[C@@H]3CCCC[C@@H]32)C[C@@H]2CCCC[C@@H]21 [O6K3] (Pent4ynoyl-[Oic][Oic][Oic][Oic][Oic][Oic]KKK-OH) | >80 |  |  |  | >80 | >80 | >80 |
| C#CCCC(=O)N1[C@H](C(=O)N2[C@H](C(=O)N3[C@H](C(=O)N4[C@H](C(=O)N5[C@H](C(=O)N6[C@H](C(=O)O)C[C@@H]7CCCC[C@@H]76)C[C@@H]6CCCC[C@@H]65)C[C@@H]5CCCC[C@@H]54)C[C@@H]4CCCC[C@@H]43)C[C@@H]3CCCC[C@@H]32)C[C@@H]2CCCC[C@@H]21 [O6] (Pent4ynoyl-[Oic][Oic][Oic][Oic][Oic][Oic]-OH) |  | >320 | >320 | >320 |  |  |  |
| C=C1NC(=O)[C@H]([C@@H](C)CC)NC(=O)[C@H](NC(=O)/C(=C/C)NC(=O)[C@@H](N)[C@@H](C)CC)CSC[C@@H](C(=O)N[C@H]2C(=O)N3CCC[C@H]3C(=O)NCC(=O)N[C@H](C(=O)N[C@@H](CCCCN)C(=O)N[C@H]3C(=O)NCC(=O)N[C@@H](C)C(=O)N[C@@H](CC(C)C)C(=O)N[C@@H](CCSC)C(=O)NCC(=O)N[C@H](C(=O)N[C@@H](CC(N)=O)C(=O)NCCCn4cc(CCC(=O)N5[C@H](C(=O)N6[C@H](C(=O)N7[C@H](C(=O)O)C[C@@H]8CCCC[C@@H]87)C[C@@H]7CCCC[C@@H]76)C[C@@H]6CCCC[C@@H]65)nn4)CS[C@H]3C)CS[C@H]2C)NC(=O)[C@H](CC(C)C)NC1=O [Nisin ABC + O3] | 5.0 | >80 | >80 | 20 |  |  |  |
| C=C1NC(=O)[C@H]([C@@H](C)CC)NC(=O)[C@H](NC(=O)/C(=C/C)NC(=O)[C@@H](N)[C@@H](C)CC)CSC[C@@H](C(=O)N[C@H]2C(=O)N3CCC[C@H]3C(=O)NCC(=O)N[C@H](C(=O)N[C@@H](CCCCN)C(=O)NCCCn3cc(CCC(=O)N4[C@H](C(=O)N5[C@H](C(=O)N6[C@H](C(=O)N7[C@H](C(=O)N8[C@H](C(=O)N9[C@H](C(=O)N%10[C@H](C(=O)N%11[C@H](C(=O)N%12[C@H](C(=O)O)C[C@@H]%13CCCC[C@@H]%13%12)C[C@@H]%12CCCC[C@@H]%12%11)C[C@@H]%11CCCC[C@@H]%11%10)C[C@@H]%10CCCC[C@@H]%109)C[C@@H]9CCCC[C@@H]98)C[C@@H]8CCCC[C@@H]87)C[C@@H]7CCCC[C@@H]76)C[C@@H]6CCCC[C@@H]65)C[C@@H]5CCCC[C@@H]54)nn3)CS[C@H]2C)NC(=O)[C@H](CC(C)C)NC1=O [Nisin AB + O9] | 5.0 |  |  |  |  |  |  |
| C#CCCC(=O)N1[C@H](C(=O)N2[C@H](C(=O)N3[C@H](C(=O)N4[C@H](C(=O)N5[C@H](C(=O)N6[C@H](C(=O)N7[C@H](C(=O)N8[C@H](C(=O)N9[C@H](C(=O)O)C[C@@H]%10CCCC[C@@H]%109)C[C@@H]9CCCC[C@@H]98)C[C@@H]8CCCC[C@@H]87)C[C@@H]7CCCC[C@@H]76)C[C@@H]6CCCC[C@@H]65)C[C@@H]5CCCC[C@@H]54)C[C@@H]4CCCC[C@@H]43)C[C@@H]3CCCC[C@@H]32)C[C@@H]2CCCC[C@@H]21 [O9, Pentynyl-(Oic)9-OH] (Pent4ynoyl-[Oic][Oic][Oic][Oic][Oic][Oic][Oic][Oic][Oic]-OH) |  | >320 | >320 | >320 |  |  |  |
| C=C1NC(=O)[C@H]([C@@H](C)CC)NC(=O)[C@H](NC(=O)/C(=C/C)NC(=O)[C@@H](N)[C@@H](C)CC)CSC[C@@H](C(=O)N[C@H]2C(=O)N3CCC[C@H]3C(=O)NCC(=O)N[C@H](C(=O)N[C@@H](CCCCN)C(=O)NCCCn3cc(CCC(=O)N4[C@H](C(=O)N5[C@H](C(=O)N6[C@H](C(=O)N[C@@H](CCCCN)C(=O)N[C@@H](CCCCN)C(=O)N[C@@H](CCCCN)C(=O)O)C[C@@H]7CCCC[C@@H]76)C[C@@H]6CCCC[C@@H]65)C[C@@H]5CCCC[C@@H]54)nn3)CS[C@H]2C)NC(=O)[C@H](CC(C)C)NC1=O [Nisin AB + O3K3] | >40 |  |  |  |  |  |  |
